In one series the test system is bacteria. As to the kind of experiment: In vitro antibacterial properties under standard evaluation conditions (incubation of 18 hours). Conditions: concentrations described in the literature. In kind it is cell-based. The text has this:
In contrast, I unexpectedly discovered that KLAKLAK (SEQ ID NO: 11) is capable of conferring antibacterial and/or antifungal properties on peptides comprising this motif and a peptide sequence not having antibacterial and/or antifungal properties.

Series [1] relates to three strains of bacteria (E. coli, P. aeruginosa and S. aureus). Conditions: incubation period of 4 hours; cited from earlier work.
The conditions of series [2]: Javadpour et al. 1996; cited from earlier work.
Series [3] has as its system Escherichia coli ATCC 35218. In kind it is cell-based.
Series [4] relates to Pseudomonas aeruginosa ATCC 27853. The series is classed as cell-based.
For series [5], the system named is Enterococcus faecalis ATCC 29212. The series is classed as cell-based.
The test system of series [6] is Staphylococcus aureus ATCC 25923. In kind it is cell-based.
In series [7] the test system is Streptococcus pneumoniae ATCC 6303. In kind it is cell-based.
The test system of the next series is C. neoformans Cn52D. In kind it is cell-based, Cryptococcus neoformans. The method, then:
D. Determination of the miminimal inhibitory concentration (MIC) in liquid medium for the Filamentous Fungi and Yeast
Peptide concentrations tested: from 0.2 μg/ml to 100 μg/ml.

Another series concerns human erythrocytes. In words: Hemolytic activity on human erythrocytes. Conditions: 30 minutes, 0 to 500 μg/ml, absorbance 414 nm.
The test system of series [8] is Acinetobacter baumanii ATCC 19606. The series is classed as cell-based.
In series [9] the test system is Citrobacter freundii ATCC 8090. In kind it is cell-based.
The subject of series [10] is Enterobacter aerogenes ATCC 13048. In kind it is cell-based.
The subject of series [11] is Enterobacter cloacae ATCC 23355. In kind it is cell-based.
In series [12] the test system is Escherichia coli ATCC 25922. The series is classed as cell-based.
The test system of series [13] is Haemophilus influenzae ATCC 49247. The series is classed as cell-based.
Series [14] relates to Klebsiella pneumoniae ATCC 13883. The series is classed as cell-based.
For series [15], the system named is Listeria monocytogenes ATCC 19115. In kind it is cell-based.
Another series relates to Neisseria sica ATCC 9913. The series is classed as cell-based.
Series [16] concerns Proteus vulgaris ATCC 13315. The series is classed as cell-based.
Series [17] deals with Salmonella typhimurium ATCC 14028. In kind it is cell-based.
Series [18] deals with Serratia marcescens ATCC 8100. In kind it is cell-based.
Series [19] concerns Shigella sonnei ATCC 25931. On the procedure:
The MIC values were determined by the method of microdilution in liquid medium (NCCLS M7A5) for all of the bacterial species on 96-well polystyrene plates.
The culture medium was Mueller-Hinton broth (MHB) (pH≈7.2-7.4) with supplements according to the bacterial species studied: • MHB alone for the non-exigent species, • MHB+3% lysed horse blood for the streptococci, Listeria and Neisseria, • MHB+hemin 15 mg/l+NAD 15 mg/l+yeast extract 5 g/l for Haemophilus.
The bacterial inoculum was prepared from re-isolation performed on: • CLED agar: non-exigent strains, • blood agar+5% goat blood: streptococci, Listeria and Neisseria • chocolate agar+5% goat blood: Haemophilus, Neisseria.
The final inoculum was at ≈5·10^5 cfu/ml (colony forming units). 50 μl of bacterial inoculum was distributed per well containing an equal volume of the peptide solution diluted by half in the appropriate culture medium depending on the bacterial species (0.5 to 512 μg/ml). The cultures were incubated at 35° C. in ambient air for 16 to 20 hours (20 to 24 h for the streptococci).
Determination of the MBC values was performed after inhibition and reading of the MIC plates:
A volume of 3 μl of each concentration of antibiotic was deposited on the agar media: • MH: for the non-exigent strains, • MH+5% sheep blood: for the streptococci, Listeria, Bacillus and Neisseria, • HTM: for the Haemophilus.
The agars were incubated for 18 h at 35° C. in atmosphere: • in ambient air: for the non-exigent strains, • with 5-6% of CO2: for the streptococci, Listeria, Haemophilus and Neisseria.
The MBC is the lowest concentration of antibiotic that inhibits all bacterial growth on the transplant agar (<0. 1% of survivors).

The subject of series [20] is Bacillus cereus ATCC 11778. The series is classed as cell-based.
Series [21] concerns Bacillus subtilis ATCC 6633. In kind it is cell-based.
The subject of series [22] is Enterococcus faecalis ATCC 19433. The series is classed as cell-based.
Series [23] has as its system Enterococcus faecium ATCC 35667. The series is classed as cell-based.
Series [24] relates to Micrococcus luteus ATCC 9341. The series is classed as cell-based.
In series [25] the test system is Staphylococcus aureus ATCC 14154. In kind it is cell-based.
Series [26] concerns Staphylococcus epidermidis ATCC 12228. In kind it is cell-based.
Series [27] concerns Streptococcus agalactiae ATCC 13813. In kind it is cell-based.
The subject of series [28] is Streptococcus pneumoniae ATCC 49619. In kind it is cell-based.
The test system of series [29] is Streptococcus pyogenes ATCC 19615. The series is classed as cell-based.
The nature of series [30]: In vivo toxicity: maximal tolerated dose (MTD). Conditions: mouse, female OFI mice, intravenous perfusion approx. 15 minutes, 28 days after an injection. On the procedure: The maximal tolerated dose (MTD) for each peptide was determined on female OFI mice at 28 days after an injection. The MTD was defined as the maximal nonlethal dose that could be injected. The peptides were administered by the intravenous route as a perfusion of approximately 15 minutes duration. The injection volume was 10 μl/g, the perfusion rate was 1.2 ml/hour and the excipient was a solution of NaCl at 0.8%.

Series [31] relates to Shigella flexneri ATCC 112022.

In brackets after ≈: the same amount, converted by molar mass. Like-named read-outs stand apart in the source and are kept apart here. Where a SMILES comes first, the peptide text is derived from it.

Procedure for human erythrocytes: 1·10^6 human erythrocytes were incubated for 30 minutes with increasing concentrations of peptides (from 0 to 500 μg/ml) in a final volume of 150 μl. The hemolytic activity was evaluated by measurement of the absorbance (Abs) at the wave length 414 nm (Absorbance of hemoglobin) of the cellular supernatants. The absorbance of the supernatant after incubation of the erythrocytes in water corresponds to 100% (Abs100) of hemolysis and the absorbance of the supernatant after incubation of the erythrocytes in PBS corresponds to 0% of hemolysis (Abs0). The hemolytic activity of the peptides expressed in percentage corresponds to (Abspeptide−Abs0)/Abs100×100.

As for “KLAKLAKKLAKLAK [14-mer linear peptide, literature 14-mer linear peptide (Javadpour et al. 1996)]”, the values for the antibacterial activity entry (in the series with bacteria; in series [1]) were “did not reveal any biological activity” and “showed activity”, respectively. In addition, the hemolysis entry in series [2] is “nonhemolytic”.
With `CC(C)C[C@H](NC(=O)[C@H](CCCCN)NC(=O)CNC(=O)[C@H](CCCCN)NC(=O)[C@H](CCCCN)NC(=O)[C@H](CCCCN)NC(=O)[C@H](CCCNC(=N)N)NC(=O)[C@H](CCCCN)NC(=O)CNC(=O)[C@H](CCCCN)NC(=O)[C@H](C)NC(=O)[C@H](CC(C)C)NC(=O)[C@H](CCCCN)NC(=O)[C@H](C)NC(=O)[C@H](CC(C)C)NC(=O)[C@H](CCCCN)NC(=O)[C@H](CCCCN)NC(=O)[C@H](C)NC(=O)[C@H](CC(C)C)NC(=O)[C@H](CCCCN)NC(=O)[C@H](C)NC(=O)[C@H](CC(C)C)NC(=O)[C@@H](N)CCCCN)C(=O)NCC(=O)N[C@@H](CCCCN)C(=O)N[C@@H](CCCCN)C(=O)N[C@@H](CCCNC(=N)N)C(=O)N[C@@H](CC(=O)O)C(=O)N1CCC[C@H]1C(=O)O` [Peptide 3] (H-KLAKLAKKLAKLAKGKRKKKGKLGKKRDP-OH; N-terminus and C-terminus assumed), the MIC in [3] was 64 µg/mL (≈ 19.8 µM); in series [4], 64 µg/mL (≈ 19.8 µM); in series [5], 64 µg/mL (≈ 19.8 µM); in series [6], 64 µg/mL (≈ 19.8 µM); in [7], more than 500 µg/mL; against C. neoformans Cn52D (tested 0.2 to 100 μg/ml), 1.56 µg/mL (≈ 0.483 µM). The hemolytic activity entry in the series on human erythrocytes is on record as “did not exhibit hemolytic activity”.
Consider `CC(C)C[C@H](NC(=O)CNC(=O)[C@H](CCCNC(=N)N)NC(=O)[C@H](CCCCN)NC(=O)[C@@H](N)C(C)C)C(=O)N[C@@H](CCCCN)C(=O)N[C@@H](CC(C)C)C(=O)N[C@@H](CCCCN)C(=O)N[C@@H](CC(C)C)C(=O)N[C@@H](C)C(=O)N[C@@H](CCCCN)C(=O)N[C@@H](CC(C)C)C(=O)N[C@@H](C)C(=O)N[C@@H](CCCCN)C(=O)N[C@@H](CCCCN)C(=O)N[C@@H](CC(C)C)C(=O)N[C@@H](C)C(=O)N[C@@H](CCCCN)C(=O)N[C@@H](CC(C)C)C(=O)N[C@@H](C)C(=O)N[C@@H](CCCCN)C(=O)O` [Peptide 1] (H-VKRGLKLKLAKLAKKLAKLAK-OH; N-terminus and C-terminus assumed), for which the MBC in series [8] is 16 µg/mL (≈ 6.9 µM); in [9], 16 µg/mL (≈ 6.9 µM); in series [10], 256 µg/mL (≈ 110 µM); in series [11], 16 µg/mL (≈ 6.9 µM); in [12], 16 µg/mL (≈ 6.9 µM); in series [3], 8 µg/mL (≈ 3.45 µM). Moreover, the MBC in series [13] was 64 µg/mL (≈ 27.6 µM); in [14], more than 512 µg/mL; in series [15] it was 128 µg/mL (≈ 55.2 µM); in the series on Neisseria sica ATCC 9913 it was 128 µg/mL (≈ 55.2 µM); in series [16] it was 256 µg/mL (≈ 110 µM); in series [4], more than 512 µg/mL. Moreover, the MBC in [17] was 8 µg/mL (≈ 3.45 µM); in series [18], more than 512 µg/mL; in [19], 4 µg/mL (≈ 1.72 µM); in [20], 128 µg/mL (≈ 55.2 µM); in series [21], 8 µg/mL (≈ 3.45 µM); in series [22], more than 512 µg/mL. Moreover, the MBC in series [5] was more than 512 µg/mL; in series [23] it was more than 512 µg/mL; in [24] it was 4 µg/mL (≈ 1.72 µM); in series [25] it was 128 µg/mL (≈ 55.2 µM); in series [6], 64 µg/mL (≈ 27.6 µM); in series [26], 4 µg/mL (≈ 1.72 µM). Also, the MBC in series [27] was determined as 128 µg/mL (≈ 55.2 µM); in series [7], 64 µg/mL (≈ 27.6 µM); in series [28] it was 256 µg/mL (≈ 110 µM); in series [29], 64 µg/mL (≈ 27.6 µM); in [31] it was 32 µg/mL (≈ 13.8 µM). Further, the MIC was found to be 8 µg/mL (≈ 3.45 µM) in series [8]; 16 µg/mL (≈ 6.9 µM) in series [9]; 256 µg/mL (≈ 110 µM) in [10]; 16 µg/mL (≈ 6.9 µM) in series [11]; 16 µg/mL (≈ 6.9 µM) in series [12]; 8 µg/mL (≈ 3.45 µM) in series [3]. In addition, the MIC in series [13] is 64 µg/mL (≈ 27.6 µM); in [14], more than 512 µg/mL; in series [15] it was 128 µg/mL (≈ 55.2 µM); with Neisseria sica ATCC 9913, 4 µg/mL (≈ 1.72 µM); in series [16] it was 128 µg/mL (≈ 55.2 µM); in series [4], 512 µg/mL (≈ 221 µM). For the same compound, the MIC was 8 µg/mL (≈ 3.45 µM) in [17]; more than 512 µg/mL in [18]; 4 µg/mL (≈ 1.72 µM) in [19]; 128 µg/mL (≈ 55.2 µM) in series [20]; 8 µg/mL (≈ 3.45 µM) in series [21]; more than 512 µg/mL in series [22]. Also, the MIC is more than 512 µg/mL in series [5]; 128 µg/mL (≈ 55.2 µM) in series [23]; 4 µg/mL (≈ 1.72 µM) in [24]; 64 µg/mL (≈ 27.6 µM) in series [25]; 64 µg/mL (≈ 27.6 µM) in series [6]; 4 µg/mL (≈ 1.72 µM) in [26]. Further, the MIC in series [27] came to 128 µg/mL (≈ 55.2 µM); in [7] it was 64 µg/mL (≈ 27.6 µM); in series [28] it was 128 µg/mL (≈ 55.2 µM); in series [29], 64 µg/mL (≈ 27.6 µM); in the series on C. neoformans Cn52D, 12.5 µg/mL (≈ 5.39 µM); in series [31], 16 µg/mL (≈ 6.9 µM). Also, the MTD (usually the largest dose that counted as tolerated) at 28 days in [30] is more than 23.2 mg/kg.

The record behind these values is US7884070B2, “Linear cationic peptides having antibacterial and/or antifungal properties” (priority 2002, dated 2011).
